# Laboratory results published in ChEMBL document CHEMBL1275528, “RamA confers multidrug resistance in Salmonella enterica via increased expression of acrB, which is inhibited by chlorpromazine” (2008).
# Experiments:
# [1] = Antimicrobial activity against Salmonella serovar Typhimurium SL1344 expressing ramA::aph-pTRC hisA:ramA mutant by broth dilution method in presence of IPTG; format: functional; conditions: Salmonella enterica
# [2] = Antimicrobial activity against Salmonella serovar Typhimurium SL1344 expressing ramA::aph mutant by broth dilution method; format: functional; conditions: Salmonella enterica
# [3] = Antimicrobial activity against Salmonella serovar Typhimurium SL1344 expressing ramA::aph-pTRC hisA:ramA mutant by broth dilution method in presence of chlorpromzine; format: functional; conditions: Salmonella enterica
# [4] = Antimicrobial activity against Salmonella serovar Typhimurium SL1344 by broth dilution method in presence of chlorpromazine; format: functional; conditions: Salmonella enterica
# [5] = Antimicrobial activity against Salmonella serovar Typhimurium SL1344 expressing ramA::aph-pTRC hisA:ramA mutant by broth dilution method; format: functional; conditions: Salmonella enterica
# [6] = Antimicrobial activity against Salmonella serovar Typhimurium SL1344 by broth dilution method; format: functional; conditions: Salmonella enterica
# [7] = Antimicrobial activity against Salmonella serovar Typhimurium SL1344 expressing tolC::aph mutant by broth dilution method; format: functional; conditions: Salmonella enterica
# [8] = Antimicrobial activity against Salmonella serovar Typhimurium SL1344 expressing acrD::aph mutant by broth dilution method; format: functional; conditions: Salmonella enterica
# [9] = Antimicrobial activity against Salmonella serovar Typhimurium SL1344 expressing marA::aph mutant by broth dilution method; format: functional; conditions: Salmonella enterica
# [10] = Antimicrobial activity against Salmonella serovar Typhimurium SL1344 expressing soxS::aph mutant by broth dilution method; format: functional; conditions: Salmonella enterica
# [11] = Antimicrobial activity against Salmonella serovar Typhimurium SL1344 expressing acrB::aph mutant by broth dilution method; format: functional; conditions: Salmonella enterica
# [12] = Antimicrobial activity against Salmonella serovar Typhimurium SL1344 expressing acrF::aph mutant by broth dilution method; format: functional; conditions: Salmonella enterica
# [13] = Antimicrobial activity against Salmonella serovar Typhimurium SL1344 expressing ramA::aph mutant assessed as acrB expression at 200 ug/ml; format: functional
# [14] = Antimicrobial activity against Salmonella serovar Typhimurium SL1344 expressing acrB::aph mutant assessed as ramA expression at 200 ug/ml; format: functional
# [15] = Antimicrobial activity against Salmonella serovar Typhimurium SL1344 assessed as acrB expression at 200 ug/ml; format: functional
# [16] = Antimicrobial activity against Salmonella serovar Typhimurium SL1344 assessed as ramA expression at 200 ug/ml; format: functional
# [17] = Antimicrobial activity against Salmonella serovar Haifa 9878 by broth dilution method; format: functional, Salmonella enterica subsp. enterica serovar Haifa; conditions: Salmonella enterica
# Salmonella typhimurium [18] = test: Antimicrobial activity against Salmonella serovar Typhimurium LT2 by broth dilution method; format: functional, Salmonella enterica subsp. enterica serovar Typhimurium; conditions: Salmonella enterica
# [19] = Antimicrobial activity against Salmonella serovar Mbandaka 7892 by broth dilution method; format: functional, Salmonella enterica subsp. enterica serovar Mbandaka; conditions: Salmonella enterica
# [20] = Antimicrobial activity against Salmonella serovar Montevideo 5747 by broth dilution method; format: functional, Salmonella enterica subsp. enterica serovar Montevideo; conditions: Salmonella enterica
# [21] = Antimicrobial activity against Salmonella serovar Kedougou by broth dilution method; format: functional, Salmonella enterica subsp. enterica serovar Kedougou; conditions: Salmonella enterica
# [22] = Antimicrobial activity against Salmonella serovar Hadar by broth dilution method; format: functional, Salmonella enterica subsp. enterica serovar Hadar; conditions: Salmonella enterica
# Salmonella typhimurium [23] = test: Antimicrobial activity against Salmonella serovar Typhimurium 14028S by broth dilution method; format: functional, Salmonella enterica subsp. enterica serovar Typhimurium; conditions: Salmonella enterica
# [24] = Antimicrobial activity against Salmonella serovar Newport 129 by broth dilution method; format: functional, Salmonella enterica subsp. enterica serovar Newport; conditions: Salmonella enterica
# [25] = Antimicrobial activity against Salmonella serovar Binza 8269 by broth dilution method; format: functional, Salmonella enterica subsp. enterica serovar Binza; conditions: Salmonella enterica
# [26] = Antimicrobial activity against Salmonella serovar Virchow 5742 by broth dilution method; format: functional, Salmonella enterica subsp. enterica serovar Virchow; conditions: Salmonella enterica
# [27] = Antimicrobial activity against Salmonella serovar Heidelberg 5171 by broth dilution method; format: functional, Salmonella enterica subsp. enterica serovar Heidelberg; conditions: Salmonella enterica
# Salmonella enteritidis = test: Antimicrobial activity against Salmonella serovar Enteritidis 5188 by broth dilution method; format: functional, Salmonella enterica subsp. enterica serovar Enteritidis; conditions: Salmonella enterica
SMILES,MIC [1],MIC [2],MIC [3],MIC [4],MIC [5],MIC [6],MIC [7],MIC [8],MIC [9],MIC [10],MIC [11],MIC [12],other results
CN(C)c1ccc2cc3ccc(N(C)C)cc3nc2c1 [ACRIDINE ORANGE],512 µg/mL,256 µg/mL,512 µg/mL,512 µg/mL,256 µg/mL,512 µg/mL,,,,,,,
CN(C)CCC=C1c2ccccc2CCc2ccccc21 [AMITRIPTYLINE],,512 µg/mL,,,,512 µg/mL,256 µg/mL,1020 µg/mL,512 µg/mL,512 µg/mL,256 µg/mL,512 µg/mL,
O=C(N[C@H](CO)[C@H](O)c1ccc([N+](=O)[O-])cc1)C(Cl)Cl [CHLORAMPHENICOL],32 µg/mL,4 µg/mL,16 µg/mL,0.015 µg/mL,8 µg/mL,4 µg/mL,,,,,,,
CN(C)CCCN1c2ccccc2Sc2ccc(Cl)cc21 [CHLORPROMAZINE],512 µg/mL,256 µg/mL,,,512 µg/mL,512 µg/mL,32 µg/mL,128 µg/mL,256 µg/mL,256 µg/mL,32 µg/mL,128 µg/mL,fold change (FC) [13]: 1.6; fold change (FC) [14]: 0.7; fold change (FC) [15]: 2.6; fold change (FC) [16]: 0.4
O=C(O)c1cn(C2CC2)c2cc(N3CCNCC3)c(F)cc2c1=O [CIPROFLOXACIN],0.03 µg/mL,0.03 µg/mL,0.015 µg/mL,0.008 µg/mL,0.03 µg/mL,0.03 µg/mL,,,,,,,
CN(C)c1ccc(C(=C2C=CC(=[N+](C)C)C=C2)c2ccc(N(C)C)cc2)cc1.[Cl-] [GENTIAN VIOLET],2 µg/mL,2 µg/mL,0.5 µg/mL,1 µg/mL,2 µg/mL,2 µg/mL,,,,,,,
CC[n+]1c(-c2ccccc2)c2cc(N)ccc2c2ccc(N)cc21.[Br-] [HOMIDIUM BROMIDE],2050 µg/mL,1020 µg/mL,512 µg/mL,8 µg/mL,2050 µg/mL,1020 µg/mL,,,,,,,MIC [17]: 1020 µg/mL; MIC (Salmonella typhimurium [18]): 1020 µg/mL; MIC [19]: 1020 µg/mL; MIC [20]: 1020 µg/mL; MIC [21]: 512 µg/mL; MIC [22]: 1020 µg/mL; MIC (Salmonella typhimurium [23]): 2050 µg/mL; MIC [24]: 1020 µg/mL; MIC [25]: 1020 µg/mL; MIC [26]: 1020 µg/mL; MIC [27]: 512 µg/mL; MIC (Salmonella enteritidis): 1020 µg/mL
CCn1cc(C(=O)O)c(=O)c2ccc(C)nc21 [NALIDIXIC ACID],64 µg/mL,4 µg/mL,16 µg/mL,,16 µg/mL,4 µg/mL,,,,,,,
CCn1cc(C(=O)O)c(=O)c2cc(F)c(N3CCNCC3)cc21 [NORFLOXACIN],0.25 µg/mL,0.25 µg/mL,0.25 µg/mL,0.008 µg/mL,0.25 µg/mL,0.06 µg/mL,,,,,,,MIC [17]: 0.06 µg/mL; MIC (Salmonella typhimurium [18]): 0.06 µg/mL; MIC [19]: 0.06 µg/mL; MIC [20]: 0.06 µg/mL; MIC [21]: 0.06 µg/mL; MIC [22]: 0.06 µg/mL; MIC (Salmonella typhimurium [23]): 0.06 µg/mL; MIC [24]: 0.06 µg/mL; MIC [25]: 0.06 µg/mL; MIC [26]: 0.06 µg/mL; MIC [27]: 0.06 µg/mL; MIC (Salmonella enteritidis): 0.06 µg/mL
CO[C@@H]1[C@@H](OC(N)=O)[C@@H](O)[C@H](Oc2ccc3c(O)c(NC(=O)c4ccc(O)c(CC=C(C)C)c4)c(=O)oc3c2C)OC1(C)C [NOVOBIOCIN],1020 µg/mL,256 µg/mL,512 µg/mL,64 µg/mL,512 µg/mL,512 µg/mL,,,,,,,
Cc1ccccc1C(OCCN(C)C)c1ccccc1 (stereo not drawn) [ORPHENADRINE],,1020 µg/mL,,,,1020 µg/mL,1020 µg/mL,1020 µg/mL,1020 µg/mL,1020 µg/mL,1020 µg/mL,1020 µg/mL,
CN(C)[C@@H]1C(O)=C(C(N)=O)C(=O)[C@@]2(O)C(O)=C3C(=O)c4c(O)cccc4[C@@](C)(O)[C@H]3C[C@@H]12 [TETRACYCLINE],16 µg/mL,2 µg/mL,8 µg/mL,0.25 µg/mL,4 µg/mL,2 µg/mL,,,,,,,
CSc1ccc2c(c1)N(CCC1CCCCN1C)c1ccccc1S2 (stereo not drawn) [THIORIDAZINE],,1020 µg/mL,,,,1020 µg/mL,32 µg/mL,1020 µg/mL,1020 µg/mL,1020 µg/mL,32 µg/mL,1020 µg/mL,
Oc1cc(Cl)ccc1Oc1ccc(Cl)cc1Cl [TRICLOSAN],1 µg/mL,0.12 µg/mL,0.25 µg/mL,,0.25 µg/mL,0.12 µg/mL,,,,,,,
CN1CCN(CCCN2c3ccccc3Sc3ccc(C(F)(F)F)cc32)CC1 [TRIFLUOPERAZINE],,1020 µg/mL,,,,1020 µg/mL,32 µg/mL,1020 µg/mL,1020 µg/mL,1020 µg/mL,64 µg/mL,1020 µg/mL,
